Test results taken from patent US8293481B2, “Biomarkers for chronic vascular dysfunction” (Mayo Foundation for Medical Education and Research, priority 2006, dated 2012).

What was measured:
Experiment in all cases: Affymetrix microarray gene expression in aorta post-infarction
Type in all cases: in vivo, rat
TAO kinase 1 (Taok1) = conditions: 2 weeks, infarcted rats with or without captopril
Excerpt: (§1) After intubation, rats were ventilated continuously (room air) using a small animal ventilator (Model 683, Harvard Apparatus, Holliston, Mass.). A left lateral thoracotomy incision was made along the 5th intercostal space and after the pericardium was opened, the heart was exteriorized using a retention suture placed at the apex. The left anterior descending coronary artery (LAD) was ligated twice using 6-0 prolene suture (Ethicon, Cornelia, Ga.). After chest closure with running 3-0 vicryl suture (Ethicon), rats were put in a recovery chamber with a heating pad and warming light. The post-operative survival rate reached 80%. […] Rats were fed a standard diet of Teklad rodent feed (Harlan) ad libitum and kept on a 12:12 h light-dark cycle. Rats were sacrificed at designated time intervals of 2 weeks and 4 weeks after surgery. […] Isolation of total RNA: […] Surrounding peri-adventitial tissues, fat, and endothelium were then carefully cleaned away and removed. The remaining vascular smooth muscle was then frozen with liquid nitrogen, pulverized into fine powder, and resuspended in 600 μl of Buffer RLT with β-ME (10 μl β-ME: 1 ml Buffer RLT, Qiagen, Valencia, Calif.). The lysate was pipetted directly onto a QIAshredder spin column (Qiagen) placed in a 2 ml collection tube and centrifuged for 5 minutes at 14000 rpm, 4° C. The supernatant was transferred to a new microcentrifuge tube and 1 volume of 70% ethanol was added and mixed. The cleared lysate was then transferred to an RNeasy mini-column (Qiagen) placed in a 2 ml collection tube and spun for 15 seconds at ≧10,000 rpm, 4° C. The flow-through was discarded and 700 μl of Buffer RW1 (Qiagen) was added to the RNeasy column. After the column was spun for 15 seconds at ≧10,000 rpm (4° C.), it was transferred into a new 2 ml collection tube, washed, spun twice with 500 μl Buffer RPE (Qiagen), and eluted with 40 μl of RNase-free water using a microcentrifuge (≧10,000 rpm, 4° C.) for 1 minute. Final RNA samples were stored at −20° C. to prevent degradation. Determination of gene expression using Affymetrix microarrays: Gene expression analysis was conducted using a GeneChip Rat Genome 230 2.0 Array (Affymetrix, West Sacramento, Calif.), with sequences selected from the GENBANK® (World Wide Web at ncbi.nlm.nih.gov) database for expressed sequence tags (dbEST), and Reference Sequence (RefSeq) (Benson et al. (2007) Nucleic Acids Res. 35:D21-25; and Boguski et al. (1993) Nat. Genet. 4:332-333). These sequence clusters were created from the UniGene database (Wheeler et al. (2003) Nucleic Acids Res. 31:28-33; Build 99, June 2002, World Wide Web at ncbi.nlm.nih.gov) and then refined by analysis and comparison with the publicly available draft assembly of the rat genome from the Baylor College of Medicine Human Genome Sequencing Center (Gibbs et al. (2004) Nature 428:493-521). […] GENECHIP® Scanner 3000 and GENECHIP® Operating Software (GCOS) v1.1.1 (Affymetrix, West Sacramento, Calif.), enabled for high-resolution scanning, was used for the final microarray analysis. Differentially expressed genes are listed according to their GeneID number in the National Center for Biotechnology Information (NCBI) database. To ensure accurate analysis, a minimum of 3 ng of good quality total RNA at a concentration of ≧500 pg/μl was required. RNA (1 ng) was tested for its quality using an Agilent 2100 bioanalyzer (Agilent Technologies). A RNA Integrity Number (RIN) was assigned to each sample, and RIN ≧6 was considered satisfactory for proceeding with the microarray analysis. Statistics: The Affymetrix array was used to determine gene expression at 2 weeks and 4 weeks. Uninfarcted control aorta was then compared with both captopril and placebo treated aorta. Similarly, uninfarcted control portal vein was compared with both captopril and placebo treated portal vein. […]

[1] = tested on: Sel (suppressor of lin-12) 1 homolog 1h. (Sel1h); conditions: 2 weeks, infarcted rats with or without captopril
Excerpt: as §1

[2] = tested on: chemokine (C-X-C motif) ligand 12 (Cxcl12); conditions: 4 weeks, surgery group without treatment less than baseline control
Excerpt: as §1

[3] = tested on: trimethyllysine hydroxylase epsilon (Tmlhe); conditions: 4 weeks, surgery group without treatment less than baseline control
Excerpt: as §1

[4] = tested on: glycerophosphodiester phosphodiesterase (MIR16); conditions: 2 weeks, infarcted rats with or without captopril
Excerpt: as §1

## C[C@H](CS)C(=O)N1CCC[C@H]1C(=O)O [Captopril, 1-[(2S)-3-mercapto-2-methylpropionyl]-L-proline]
TAO kinase 1 (Taok1)
  Taok1 aortic expression level versus control rats without surgery: higher
[1]
  Sel1h aortic expression level versus control rats without surgery: higher
[2]
  Cxcl12 expression in the aorta with captopril: increased expression
[3]
  Tmlhe expression in the aorta with captopril: increased expression
[4]
  MIR16 aortic expression level versus control rats without surgery: higher
